Laboratory results reported in patent publication US20240166645A1, “PYRIDOPYRIMIDINONE DERIVATIVE, PREPARATION METHOD THEREFOR, AND USE THEREOF” (Wuhan Humanwell Innovative Drug Research and Development …, priority 2021, published 2024).

Legend:
[1] = Plasma protein binding by equilibrium dialysis, mouse plasma; assay type: in vitro ADME; settings: 37° C., read-out: Free fraction in plasma, Mouse (%)
Protocol: (§1) Plasma protein binding rate of compounds was detected by equilibrium dialysis (HTDialysis, HTD 96b). The compound was prepared into a […] stock solution with DMSO, and then 25-fold diluted with 0.05 M sodium phosphate buffer as a working solution. A blank 96-well plate was taken and preloaded with 380 μL of plasma per well. The plasma was then added with the working solution at 20 μL/well and mixed well, with the compound at a final concentration of 1 μM, containing 0.2% DMSO per well.
(§2) 100 μL of 0.05 M sodium phosphate buffer was added to the reception-side of each dialysis chamber (HTD 96b), and then 100 μL of plasma containing the compound was added to the supply-side. The dialysis chamber was covered with a plastic lid, shaken and incubated at 37° C. for 5 h.
(§3) After incubation, 25 μL of samples were taken from each of the supply-side and the reception-side of the dialysis chamber and placed in the blank 96-well plate. An equal volume of plasma was added to each of the supply-side samples while an equal volume of 0.05 M sodium phosphate buffer was added to each of the reception-side samples and mixed well. The 96-well plate was added with an acetonitrile solution containing internal standard at 200 μL per well, vortexed and shaken at 600 rpm for 10 min, and centrifuged at 5594 g for 15 min (Thermo Multifuge×3R). 50 μL of the supernatant was then transferred to a new 96-well plate, and the samples were mixed with 50 μL of ultra-pure water for LC-MS/MS analysis.
(§4) Plasma protein binding rate and free fraction were calculated using the following formulas: % binding rate=100×([supply-side concentration]5h−[reception-side concentration]5h)/[supply-side concentration]5h. % free fraction=100−% binding rate.

[2] = Plasma protein binding by equilibrium dialysis, human plasma; assay type: in vitro ADME; settings: 37° C., read-out: Free fraction in plasma, Human (%)
Protocol: as §1, §2, §3, §4

[3] = molecular target: KRAS G12C-SOS1 (Homo sapiens (Human), UniProt Q07889); assay: Inhibition test of compounds on KRAS G12C::SOS1 binding; settings: GST-KRAS G12C, His-SOS1
Sequence of KRAS G12C-SOS1 (Q07889 whole entry, stated change not applied): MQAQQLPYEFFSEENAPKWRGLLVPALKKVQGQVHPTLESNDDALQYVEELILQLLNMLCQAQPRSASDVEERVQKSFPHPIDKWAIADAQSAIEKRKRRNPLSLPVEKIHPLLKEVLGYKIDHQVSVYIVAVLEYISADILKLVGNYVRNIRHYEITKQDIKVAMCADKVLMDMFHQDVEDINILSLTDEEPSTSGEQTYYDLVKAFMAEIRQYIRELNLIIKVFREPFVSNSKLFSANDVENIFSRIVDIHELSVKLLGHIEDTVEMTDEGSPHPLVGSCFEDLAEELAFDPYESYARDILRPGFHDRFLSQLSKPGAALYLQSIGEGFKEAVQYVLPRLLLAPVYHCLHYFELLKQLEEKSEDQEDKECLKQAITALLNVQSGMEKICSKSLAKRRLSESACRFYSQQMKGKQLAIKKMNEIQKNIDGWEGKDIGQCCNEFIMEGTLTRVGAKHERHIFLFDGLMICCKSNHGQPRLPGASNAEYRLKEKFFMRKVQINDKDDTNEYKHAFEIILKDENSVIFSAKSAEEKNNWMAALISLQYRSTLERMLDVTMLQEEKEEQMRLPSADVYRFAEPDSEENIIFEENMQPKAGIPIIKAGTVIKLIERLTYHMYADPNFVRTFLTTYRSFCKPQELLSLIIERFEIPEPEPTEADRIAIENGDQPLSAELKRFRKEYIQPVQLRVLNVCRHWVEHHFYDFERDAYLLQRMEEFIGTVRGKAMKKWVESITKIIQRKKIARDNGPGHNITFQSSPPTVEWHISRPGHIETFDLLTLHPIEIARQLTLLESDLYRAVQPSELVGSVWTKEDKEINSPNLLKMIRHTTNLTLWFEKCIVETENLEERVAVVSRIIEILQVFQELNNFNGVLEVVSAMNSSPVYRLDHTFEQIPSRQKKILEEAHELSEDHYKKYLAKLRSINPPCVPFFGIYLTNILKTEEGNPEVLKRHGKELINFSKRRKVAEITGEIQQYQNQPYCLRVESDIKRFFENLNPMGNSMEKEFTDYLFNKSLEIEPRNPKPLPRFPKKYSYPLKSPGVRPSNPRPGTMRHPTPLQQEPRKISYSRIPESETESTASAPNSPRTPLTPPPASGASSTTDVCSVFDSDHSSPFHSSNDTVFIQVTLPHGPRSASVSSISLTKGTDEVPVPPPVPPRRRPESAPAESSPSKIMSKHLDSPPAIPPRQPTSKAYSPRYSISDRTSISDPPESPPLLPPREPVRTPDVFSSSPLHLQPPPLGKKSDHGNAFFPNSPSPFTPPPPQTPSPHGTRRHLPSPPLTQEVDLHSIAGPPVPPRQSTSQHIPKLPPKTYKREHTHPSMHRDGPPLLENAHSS
Protocol: The compound to be tested was prepared into a 10 mM stock solution with DMSO, and the compound was serially diluted using 1× test buffer. 0.1 μL of the compound solution with different concentrations was transferred to a 384-well plate. […] 5 μL of His-SOS1 was added to the 384-well plate, centrifuged at 1000 rpm for 1 min, and incubated at room temperature for 15 min.
After incubation, 10 μL of a mixed solution of anti-6his-Tb monoclonal antibody (Cisbio, Cat. No. 61HI2TLA) and anti-GST-XL665 monoclonal antibody (Cisbio, Cat. No. 61GSTXLA) was added to the test well, centrifuged at 1000 rpm for 1 min, and incubated at room temperature for 1 h.
After incubation, the fluorescence signal ratios at 665 nm and 615 nm were read on a multifunctional microplate reader (Perkin Elmer, Envision 2104), and the IC50 values were calculated using Graphpad 5 software.

[4] = system: H358 cells; assay: Inhibition of 3D cell proliferation (3D CellTiter-Glo); assay type: cell-based; settings: Homo sapiens, NCI-H358, 168 h, read-out: IC50 (nM), inhibition of 3D proliferation of H358 cells, 7 days
Protocol: H358 cells were seeded in a T75 culture flask and cultured in a RPMI 1640 medium containing 10% FBS for 2 days for subsequent experiments in which the cells would be cultured or seeded on a 384-well plate.
On day 1, the cells were seeded on the 384-well plate, with 40 μL of medium added per well and serially diluted compounds or DMSO added per well, and an additional well without seeded cells but with medium was set up as a blank control. After culture at 37° C., 5% CO2 for 7 days, the plate was added with 3D CellTiter-Glo reagent (Promega, Cat. No. G9683) on day 8, shaken at 320 rpm for 20 min, and left at room temperature for 2 h. Luminescence signals were read on a multifunctional microplate reader. Cell viability inhibition rate was calculated as:
Cell viability inhibition rate=(DMSO group−test compound)/(DMSO group−blank control group)×100%
(§5) IC50 values were calculated using Graphpad 5 software.

[5] = system: Mia Paca-2 pancreatic cancer; assay: Mia Paca-2 pancreatic cancer in vivo efficacy test; parameters: species or system mice
Protocol: (§6) After one week of adaptive feeding of mice, Mia Paca-2 cells in a log phase were resuspended in serum-free DMEM, and then mixed with Matrigel in a ratio of 1:1.1×10^7 Mia Paca-2 cells were inoculated subcutaneously at the right flank at 100 μL per mouse, and tumor growth was observed regularly. When the tumor grew to an average volume of 150 to 200 mm^3, the mice were randomly divided into a model group and an administration group (single drug, in combination with trametinib) based on the tumor size and body weight. The tumor size and body weight were measured and recorded before and during the administration. After the treatment, the tumor size in the model group was compared with that in the administration group to determine the efficacy.

[6] = system: ERK phosphorylation level in DLD-1 cells; assay: Inhibition of ERK phosphorylation level in DLD-1 cells (intracellular western blot); assay type: cell-based; settings: Homo sapiens
Protocol: Intracellular western blot quantitative analysis was used to detect the inhibitory level of compounds on ERK phosphorylation in DLD-1 cells.
DLD-1 cells (ATCC, CCL-221) were seeded in a T75 culture flask at 2.5×10^6 cells/flask and cultured in a RPMI 1640 medium containing 10% FBS for 2 days. On day 3, the cells were seeded on a 384-well plate, and cultured overnight at 37° C., 5% CO2. After overnight culture, the plate was added with serially diluted compounds (the final content of DMSO was 0.5%), the negative group was added with DMSO, and incubated in a 37° C., 5% CO2 incubator.
The cells were fixed, washed once with PBS, treated to disrupt membranes, and blocked at room temperature for 1 h. The blocking solution was removed. The plate was added with primary antibody (CST, Cat. No. #4370S), and incubated overnight at 4° C. The plate was washed 3 times with PBST (PBS solution added with 0.05% Tween-20) and soaked for 2 min each time. The plate was added with secondary antibody (LI-COR, Cat. No. 926-32211) and incubated at room temperature in the dark. The plate was washed 3 times with PBST and soaked for 2 min each time. The plate was centrifuged at 1000 rpm for 1 min, scanned on a two-color infrared laser imaging system (Odyssey® CLX) to read the signal.
Relative signal=800-channel signal values/700-channel signal values.
Relative expression level of ERK phosphorylation=(test compound−control compound I)/(DMSO group−control compound I)
as §5

[7] = Pharmacokinetic test in mice; assay type: in vivo; settings: mouse, plasma; male ICR mice, oral gavage, 10 mg/kg
Protocol: Male ICR mice (20 to 25 g) were used and fasted overnight. Three mice were taken and orally administered by gavage (10 mg/kg). Blood was collected before the administration, and at 15 min, 30 min, 1 h, 2 h, 4 h, 8 h and 24 h after the administration. 6,800 g of the blood samples were centrifuged at 2 to 8° C. for 6 min, and plasma was collected and stored at −80° C. The plasma at each time point was taken and added with an acetonitrile solution containing internal standard in 3 to 5 times the amount, vortexed and mixed for 1 min, and centrifuged at 13,000 rpm/min at 4° C. for 10 min. The supernatant was collected, added with water in 3 times the amount, and mixed. An appropriate amount of the mixture was taken for LC-MS/MS analysis. The main pharmacokinetic parameters were analyzed using WinNonlin 7.0 software with non-compartmental model.

[8] = system: LOVO colorectal cancer; assay: LOVO colorectal cancer in vivo efficacy test; parameters: species or system mice; settings: 25 mg/kg BID
Protocol: as §6, with “LOVO” for “Mia Paca-2”, “F12K, 5×10^6 LOVO” for “DMEM, and then mixed with Matrigel in a ratio of 1:1.1×10^7 Mia Paca-2”, “group” for “group (single drug, in combination with trametinib)”

[9] = Human liver microsome stability test; assay type: in vitro ADME; settings: human, human liver microsomes
Protocol: The human liver microsome stability test was performed by incubating the compound and human liver microsomes in vitro. First, the compound to be tested was prepared into a 10 mM stock solution in DMSO solvent, and then the compound was diluted to 0.5 mM with acetonitrile. Human liver microsomes (Corning) were diluted with PBS into a microsome/buffer solution, and the solution was used to dilute 0.5 mM compound into a working solution, in which the concentration of the compound was 1.5 μM, and the concentration of human liver microsomes was 0.75 mg/mL. A deep-well plate was taken, 30 μL of the working solution was added per well, and then 15 μL of pre-heated 6 mM NADPH solution was added thereto to initiate a reaction, and the reaction was incubated at 37° C. At 0, 5, 15, 30 and 45 min of the incubation, 135 μL of acetonitrile was added to the corresponding wells to terminate the reaction. After the reaction was terminated with acetonitrile at the last time point of 45 min, the deep-well plate was vortexed and vibrated for 10 min (600 rpm/min), and then centrifuged for 15 min. After centrifugation, the supernatant was collected, and added with purified water in a ratio of 1:1 to perform LC-MS/MS detection. A ratio of a peak area of compound to a peak area of internal standard at each time point was obtained, and the peak area ratios of the compound at 5, 15, 30 and 45 min were compared with the peak area ratio at 0 min to calculate the remaining percentage of the compound at each time point. T1/2 was calculated by using GraphPad 5 software.

Row | SMILES | fraction unbound at 5 h, 1 µM [1] | fraction unbound at 5 h, 1 µM [2] | IC50 [3] [nM] | IC50 [4] [nM] | Average tumor weight at the end of the treatment ([5]; Mia Paca-2, 25 mg/kg BID) [g] | Tumor weight inhibition rate (relative to the vehicle group) ([5]; Mia Paca-2, 25 mg/kg BID) [%] | Average tumor weight at the end of the treatment ([5]; Mia Paca-2, 50 mg/kg BID) [g] | Tumor weight inhibition rate (relative to the vehicle group) ([5]; Mia Paca-2, 50 mg/kg BID) [%] | IC50 [6] [nM] | AUC(0-t) [7] [ng·h/mL] | Cmax [7] [ng/mL] | Tmax [7] [h] | half-life [7] [h] | Average tumor weight at the end of the treatment [8] [g] | Tumor weight inhibition rate (relative to the vehicle group) [8] [%] | half-life at 1 µM [9] [h]
1 | Cc1nc(N[C@H](C)c2cccc(S(=O)(=O)C(F)F)c2F)c2cn(C3(CF)CC3)c(=O)cc2n1 [Compound I-5, (R)-4-((1-(3-((difluoromethyl)sulfonyl)-2-fluorophenyl)ethyl)amino)-6-(1-(fluoromethyl)cyclopropyl)-2-methylpyrido[4,3-d]pyrimidin-7(6H)-one] | 0.114 | 0.077 | 10 |  |  |  |  |  |  |  |  |  |  |  |  | 
2 | Cc1nc(N[C@H](C)c2cccc(S(F)(F)(F)(F)F)c2)c2cn(C3(C(F)F)CC3)c(=O)cc2n1 [Compound I-23, (R)-6-(1-(difluoromethyl)cyclopropyl)-2-methyl-4-((1-(3-(pentafluorosulfanyl)phenyl)ethyl)amino)pyrido[4,3-d]pyrimidin-7(6H)-one] |  |  | 4.9 | 12 | 0.45 | 61 | 0.38 | 67 | 159 | 44100 | 4240 | 2 | 2.33 | 0.65 | 53 | 
3 | Cc1nc(N[C@H](C)c2cccc(C(F)(F)F)c2C)c2cn(C3(CF)CC3)c(=O)cc2n1 [Control compound I, reference compound] | 0.005 | 0.009 |  |  |  |  |  |  |  | 365 | 176 | 0.25 | 1.35 |  |  | 1.07
